Results published in ChEMBL document CHEMBL5241114, “A comprehensive review of BET-targeting PROTACs for cancer therapy” (Bioorg Med Chem, 2022).

How the values were obtained:
[1] = target: T1, Bromodomain-containing protein 4 (Homo sapiens, UniProt O60885); assay: Induction of BRD4 degradation in human HEK293T cells; type: cell-based
[2] = target: T1, Bromodomain-containing protein 4; assay: Induction of BRD4 degradation in human HEK293T cells at 10 uM measured at 6 hrs relative to control; type: cell-based
[3] = target: T1, Bromodomain-containing protein 4; assay: Induction of BRD4 degradation in human 231MFP cells at 10 uM incubated for 60 mins by Western blot analysis relative to control; type: cell-based
[4] = target: T1, Bromodomain-containing protein 4; assay: Binding affinity to BRD4 BD2 (unknown origin) assessed as dissociation constant by isothermal titration calorimetry assay
[5] = target: Bromodomain-containing protein 2 (Homo sapiens, UniProt P25440); assay: Binding affinity to BRD2 BD1 (unknown origin) assessed as dissociation constant by isothermal titration calorimetry assay
Chain of Bromodomain-containing protein 2 (P25440 whole entry): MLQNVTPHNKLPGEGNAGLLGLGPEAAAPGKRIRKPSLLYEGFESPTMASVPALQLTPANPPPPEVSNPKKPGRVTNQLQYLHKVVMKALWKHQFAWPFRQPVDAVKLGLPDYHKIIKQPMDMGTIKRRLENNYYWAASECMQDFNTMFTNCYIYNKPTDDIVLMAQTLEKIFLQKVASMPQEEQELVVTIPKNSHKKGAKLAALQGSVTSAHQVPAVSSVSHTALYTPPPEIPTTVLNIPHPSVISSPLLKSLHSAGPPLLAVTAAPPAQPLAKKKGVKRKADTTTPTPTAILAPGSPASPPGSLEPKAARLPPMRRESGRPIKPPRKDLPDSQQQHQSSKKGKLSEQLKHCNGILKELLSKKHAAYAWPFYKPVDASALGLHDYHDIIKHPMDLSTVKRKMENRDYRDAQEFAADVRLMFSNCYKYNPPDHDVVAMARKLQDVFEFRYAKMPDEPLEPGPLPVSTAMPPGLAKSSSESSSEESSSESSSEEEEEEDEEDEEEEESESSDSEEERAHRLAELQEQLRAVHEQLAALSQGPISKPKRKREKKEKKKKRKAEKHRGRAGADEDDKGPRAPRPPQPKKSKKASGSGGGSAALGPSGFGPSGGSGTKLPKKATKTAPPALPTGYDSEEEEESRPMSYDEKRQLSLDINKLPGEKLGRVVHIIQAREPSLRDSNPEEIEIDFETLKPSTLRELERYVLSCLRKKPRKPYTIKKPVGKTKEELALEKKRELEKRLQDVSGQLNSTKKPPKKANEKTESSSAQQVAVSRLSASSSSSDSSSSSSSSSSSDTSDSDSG

[6] = target: von Hippel-Lindau disease tumor suppressor (Homo sapiens, UniProt P40337); assay: Binding affinity to VHL (unknown origin) assessed as dissociation constant by isothermal titration calorimetry assay
Chain of von Hippel-Lindau disease tumor suppressor (P40337 whole entry): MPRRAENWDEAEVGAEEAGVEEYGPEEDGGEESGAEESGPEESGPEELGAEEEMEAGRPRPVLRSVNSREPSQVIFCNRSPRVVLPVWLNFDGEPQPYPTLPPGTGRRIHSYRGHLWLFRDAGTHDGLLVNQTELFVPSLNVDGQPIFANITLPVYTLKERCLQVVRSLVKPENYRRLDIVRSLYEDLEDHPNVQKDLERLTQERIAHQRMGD

[7] = target: Bromodomain-containing protein 3 (Homo sapiens, UniProt Q15059); assay: Induction of BRD3 degradation in human HeLa cells measured after 4 hrs; type: cell-based
Chain of Bromodomain-containing protein 3 (Q15059 whole entry): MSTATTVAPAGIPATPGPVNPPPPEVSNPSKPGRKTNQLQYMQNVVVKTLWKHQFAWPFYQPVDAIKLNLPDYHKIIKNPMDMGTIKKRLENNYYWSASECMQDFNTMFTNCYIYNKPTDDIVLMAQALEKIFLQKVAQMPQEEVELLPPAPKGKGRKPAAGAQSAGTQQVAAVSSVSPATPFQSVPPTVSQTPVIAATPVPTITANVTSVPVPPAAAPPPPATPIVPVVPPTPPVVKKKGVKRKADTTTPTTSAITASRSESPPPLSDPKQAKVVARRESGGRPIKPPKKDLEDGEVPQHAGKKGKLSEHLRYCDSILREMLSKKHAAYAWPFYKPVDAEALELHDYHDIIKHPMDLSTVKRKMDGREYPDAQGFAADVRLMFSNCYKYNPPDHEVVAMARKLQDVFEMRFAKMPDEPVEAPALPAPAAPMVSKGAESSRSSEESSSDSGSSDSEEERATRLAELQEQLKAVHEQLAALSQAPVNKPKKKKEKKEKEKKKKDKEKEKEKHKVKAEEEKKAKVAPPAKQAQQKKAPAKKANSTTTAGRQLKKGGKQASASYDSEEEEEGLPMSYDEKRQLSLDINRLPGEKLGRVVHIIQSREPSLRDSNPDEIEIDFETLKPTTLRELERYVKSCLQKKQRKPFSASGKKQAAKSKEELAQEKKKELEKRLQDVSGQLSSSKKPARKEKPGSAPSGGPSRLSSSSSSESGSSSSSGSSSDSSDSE

[8] = target: T1, Bromodomain-containing protein 4; assay: Induction of BRD4 degradation in human HeLa cells measured after 4 hrs; type: cell-based
[9] = target: T1, Bromodomain-containing protein 4; assay: Induction of BRD4 degradation in human 22Rv1 cells assessed as downregulation of c-Myc expression at 250 nM measured after 2 hrs relative to control; type: cell-based
[10] = system: CWR22R; assay: Antiproliferative activity against human 22Rv1 cells assessed as reduction in cell viability incubated for 48 to 72 hrs by Celltiter-Glo cell viability assay; type: functional, cell-based
[11] = system: MV4-11; assay: Antiproliferative activity against human MV4-11 cells assessed as reduction in cell viability incubated for 48 to 72 hrs by Celltiter-Glo cell viability assay; type: functional, cell-based
[12] = system: MCF7; assay: Antitumor activity against human MCF7 cells xenografted in mouse assessed as tumor growth inhibition; type: functional
[13] = target: T1, Bromodomain-containing protein 4; assay: Induction of BRD4 degradation in human MCF7 cells incubated for 72 hrs by Western blot analysis; type: cell-based
[14] = target: T1, Bromodomain-containing protein 4; assay: Induction of BRD4 degradation in human MCF7 cells incubated for 72 hrs by Western blot analysis relative to control; type: cell-based
[15] = Cytotoxicity against human MCF10 cells assessed as measuring cell viability incubated for 48 hrs by CCK-8 assay; type: toxicity, cell-based
[16] = system: MCF7; assay: Cytotoxicity against human MCF7 cells assessed as measuring cell viability incubated for 48 hrs by CCK-8 assay; type: toxicity, cell-based; details: MCF7, 48 h
[17] = system: SUD4; assay: Antiproliferative activity against human SU-DHL-4 cells assessed as reduction in cell viability measured after 48 hrs by MTT assay; type: functional
[18] = target: T1, Bromodomain-containing protein 4; assay: Induction of BRD4 degradation in human HEK293T cells at 20 uM relative to control; type: cell-based
[19] = target: T1, Bromodomain-containing protein 4; assay: Induction of BRD4 degradation in human HeLa cells incubated for 24 hrs by Western blot analysis; type: cell-based
[20] = system: MV4-11; assay: Antiproliferative activity against human MV4-11 cells assessed as cell growth inhibition measured after […] by Cell Titre Glo Luminescent assay; type: functional, cell-based
[21] = system: EOL1; assay: Antiproliferative activity against human EOL1 cells assessed as inhibition of cell growth; type: functional, cell-based
[22] = system: HL-60; assay: Antiproliferative activity against human HL-60 cells assessed as inhibition of cell growth; type: functional, cell-based
[23] = target: T2, Caspase-3/Caspase-7 (Homo sapiens, UniProt P42574+P55210); assay: Activation of caspase 3/7 in human 22Rv1 cells by Caspase-Glo reagent based analysis; type: cell-based
T2 sequence (P42574 whole entry): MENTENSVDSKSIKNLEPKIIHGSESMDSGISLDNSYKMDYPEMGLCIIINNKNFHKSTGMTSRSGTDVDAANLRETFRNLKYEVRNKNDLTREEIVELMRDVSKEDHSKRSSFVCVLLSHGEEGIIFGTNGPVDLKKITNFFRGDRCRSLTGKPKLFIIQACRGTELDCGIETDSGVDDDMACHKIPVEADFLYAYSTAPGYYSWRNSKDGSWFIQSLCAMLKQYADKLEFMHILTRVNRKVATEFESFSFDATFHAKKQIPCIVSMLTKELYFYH
T2 sequence (P55210 whole entry): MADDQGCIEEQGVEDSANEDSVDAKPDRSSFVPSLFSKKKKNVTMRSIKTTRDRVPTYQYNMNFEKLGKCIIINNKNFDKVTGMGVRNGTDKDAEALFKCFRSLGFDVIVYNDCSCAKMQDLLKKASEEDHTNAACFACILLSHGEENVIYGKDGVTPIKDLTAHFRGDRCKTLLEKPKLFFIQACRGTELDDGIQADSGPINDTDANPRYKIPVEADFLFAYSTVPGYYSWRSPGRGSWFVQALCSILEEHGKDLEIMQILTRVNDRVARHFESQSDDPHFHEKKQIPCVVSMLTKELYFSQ

[24] = system: MDA-MB-468; assay: Antiproliferative activity against human MDA-MB-468 cells; type: functional, cell-based
[25] = system: MDA-MB-468; assay: Antitumor activity against human MDA-MB-468 cells xenografted in mouse assessed as tumor growth inhibition at 5 mg/kg, iv; type: functional; details: read-out: TGI
[26] = target: T1, Bromodomain-containing protein 4; assay: Binding affinity to BRD4 bromodomain 1 in human Ramos cells; type: cell-based
[27] = target: T1, Bromodomain-containing protein 4; assay: Induction of BRD4 (unknown origin) degradation at 1 uM relative to control
[28] = Antiproliferative activity against human Burkitts lymphoma cells; type: functional; details: Burkitts lymphoma cell
[29] = system: NAMALVA; assay: Antiproliferative activity against human NAMALVA cells; type: functional
[30] = target: T1, Bromodomain-containing protein 4; assay: Induction of degradation of BRD4 (unknown origin)
[31] = target: T1, Bromodomain-containing protein 4; assay: Induction of BRD4 degradation in human HD-MB03 cells measured after 12 hrs; type: cell-based
[32] = target: T1, Bromodomain-containing protein 4; assay: Induction of BRD4 degradation in human HD-MB03 cells at 100 nM measured at 12 hrs relative to control; type: cell-based
[33] = system: MV4-11; assay: Cytotoxicity against human MV4-11 cells; type: functional, cell-based
[34] = system: MV4-11; assay: Cytotoxicity against human MV4-11 cells measured after 96 hrs; type: functional, cell-based; details: MV4-11, 96 h
[35] = system: CWR22R; assay: Antitumor activity against human 22Rv1 cells xenografted in Nu/Nu mouse assessed as tumor growth inhibition at 30 mg/kg, sc; type: functional; details: read-out: TGI
[36] = target: T1, Bromodomain-containing protein 4; assay: Induction of BRD4 degradation in human EOL1 cells relative to control; type: cell-based
[37] = target: T1, Bromodomain-containing protein 4; assay: Induction of BRD4 degradation in human EOL1 cells; type: cell-based

## Cc1sc2c(c1C)C(c1ccc(Cl)cc1)=N[C@@H](CC(=O)NCCOCCOCCN1CCOc3cc(N(CCC#N)C(=O)CCl)ccc31)c1nnc(C)n1-2
[1]
  DC50: 1100 nM
[2]
  Emax: 85%

## Cc1sc2c(c1C)C(c1ccc(Cl)cc1)=N[C@@H](CC(=O)NCCCCOc1ccc(Oc3ccc(N(Cc4ccccc4)C(=O)CCl)cc3)cc1)c1nnc(C)n1-2
[3]
  Activity: 30%

## Cc1ncsc1-c1ccc2c(c1)OCCOCCOC[C@@H](NC(=O)C[C@H]1N=C(c3ccc(Cl)cc3)c3c(sc(C)c3C)-n3c(C)nnc31)COCCOCCOCC(=O)N[C@@H](C(C)(C)C)C(=O)N1C[C@H](O)C[C@H]1C(=O)NC2
[4]
  Kd: 180 nM
[5]
  Kd: 180 nM
[6]
  Kd: 47 nM
[7]
  DC50: 25 nM
[8]
  DC50: 125 nM
[9]
  Activity: > 90%
[10]
  EC50: 640 nM
[11]
  EC50: 300 nM

## Cc1sc2c(c1C)C(c1ccc(Cl)cc1)=N[C@@H](CC(=O)NCCOCCOCCOCC(=O)NC(C)C(C)(C)C)c1nnc(C)n1-2 (some centres not stated)
[12]
  TGI: 59.8%
[13]
  DC50: 22 nM
[14]
  Emax: 13%
[15]
  IC50 at 48 h: 670 nM
[16]
  IC50: 59.8 nM

## Cc1sc2c(c1C)C(c1ccc(Cl)cc1)=N[C@@H](CC(=O)OC(C)(C)C)c1nnc(C)n1-2
[17]
  GC50: 3.12 µM

## O=C(CCl)N1CCCc2cc(O)ccc21
[18]
  Activity: 35%

## Cc1ncsc1-c1ccc(CNC(=O)[C@@H]2[C@@H](F)[C@@H](O)CN2C(=O)[C@@H](NC(=O)COCCOCCOCCNC(=O)C[C@@H]2N=C(c3ccc(Cl)cc3)c3c(sc(C)c3C)-n3c(C)nnc32)C(C)(C)C)cc1
[19]
  DC50: 1 nM

## Cc1sc2c(c1C)C(c1ccc(Cl)cc1)=N[C@@H](CC(=O)NCCOCCOCCOCCOCCN1CCOc3cc(N(CCC#N)C(=O)CCl)ccc31)c1nnc(C)n1-2
[1]
  DC50: 1600 nM
[2]
  Emax: 80%

## Cc1ncsc1-c1ccc(CNC(=O)[C@@H]2C[C@@H](O)CN2C(=O)[C@@H](NC(=O)COCCOCCOCCNC(=O)C[C@@H]2N=C(c3ccc(Cl)cc3)c3c(sc(C)c3C)-n3c(C)nnc32)C(C)(C)C)cc1
[20]
  EC50: 50.1 nM
[21]
  IC50: 1.5 nM
[22]
  IC50: 1.5 nM
[23]
  EC50: 150 nM

## CCn1nc(C2CC2)cc1Nc1nc(C(=O)NCCCOCCOCCOCCCNc2cccc3c2C(=O)N(C2CCC(=O)NC2=O)C3=O)nc2[nH]c3cc(-c4c(C)noc4C)c(OC)cc3c12 (configuration not stated)
[24]
  IC50: < 10 nM
[25]
  inhibition in vivo at 5 mg/kg: 85%
[26]
  IC50: 22 nM
[27]
  Emax: 93%
[28]
  GI50: 400 nM
[29]
  GI50: 340 nM
[30]
  DC50: 5 nM
[31]
  DC50: 230 nM
[32]
  Emax: 63%
[33]
  IC50: 1240 nM
[34]
  IC50: 6 nM

## Cc1c(C(=O)NCCCCCNc2cccc3c2C(=O)N(C2CCC(=O)NC2=O)C3=O)sc2c1C(c1ccc(Cl)cc1)=N[C@@H](CC(=O)OC(C)(C)C)c1nnc(C)n1-2 (some centres not stated)
[1]
  DC50: 5 nM

## Cc1sc2c(c1C)C(c1ccc(Cl)cc1)=N[C@@H](CC(=O)Nc1ccc(O)cc1)c1nnc(C)n1-2 [BIRABRESIB]
[35]
  inhibition in vivo at 30 mg/kg: 38%

## CCS(=O)(=O)Cc1cc2c(cc1C(=O)NCCCCCCCCCCC(=O)N[C@H](C(=O)N1C[C@@H](O)C[C@H]1C(=O)NCc1ccc(-c3scnc3C)cc1)C(C)(C)C)N(c1ncc(F)cc1F)Cc1c[nH]c3c(=O)n(C)cc-2c13
[36]
  Emax: > 99%
[37]
  DC50: 0.03 nM
[21]
  IC50: 0.02 nM
[22]
  IC50: 0.03 nM
